Laboratory results as given in patent US12065436B2, “Cardiac sarcomere inhibitors” (Cytokinetics, Inc., priority 2018, dated 2024).

Molecular target: bovine cardiac myofibrils (full-length cardiac myosin ATPase in the native sarcomere) (Bos taurus (Bovine), UniProt Q9BE39)
Experiment: Skinned bovine cardiac myofibril ATPase assay (PK/LDH-coupled)
Assay type: biochemical
Conditions: Ca2+ activating to 75% of maximal rate; for CDMF75 IC15: concentration giving 15% inhibition; for IC50: read-out: CDMF75 IC50
Outline: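 Inhibition of steady-state ATPase read at 340 nm through a PK/LDH-coupled NADH system (0.5 mM NADH, 1.5 mM PEP). Detergent-skinned bovine cardiac myofibrils, 1 mg/mL, were tested at pH 6.8 in PIPES/MgCl2 with 50 μM ATP and calcium adjusted to give pCa50 or pCa75 activation.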

bovine cardiac myofibrils (full-length cardiac myosin ATPase in the native sarcomere), sequence (Q9BE39 whole entry): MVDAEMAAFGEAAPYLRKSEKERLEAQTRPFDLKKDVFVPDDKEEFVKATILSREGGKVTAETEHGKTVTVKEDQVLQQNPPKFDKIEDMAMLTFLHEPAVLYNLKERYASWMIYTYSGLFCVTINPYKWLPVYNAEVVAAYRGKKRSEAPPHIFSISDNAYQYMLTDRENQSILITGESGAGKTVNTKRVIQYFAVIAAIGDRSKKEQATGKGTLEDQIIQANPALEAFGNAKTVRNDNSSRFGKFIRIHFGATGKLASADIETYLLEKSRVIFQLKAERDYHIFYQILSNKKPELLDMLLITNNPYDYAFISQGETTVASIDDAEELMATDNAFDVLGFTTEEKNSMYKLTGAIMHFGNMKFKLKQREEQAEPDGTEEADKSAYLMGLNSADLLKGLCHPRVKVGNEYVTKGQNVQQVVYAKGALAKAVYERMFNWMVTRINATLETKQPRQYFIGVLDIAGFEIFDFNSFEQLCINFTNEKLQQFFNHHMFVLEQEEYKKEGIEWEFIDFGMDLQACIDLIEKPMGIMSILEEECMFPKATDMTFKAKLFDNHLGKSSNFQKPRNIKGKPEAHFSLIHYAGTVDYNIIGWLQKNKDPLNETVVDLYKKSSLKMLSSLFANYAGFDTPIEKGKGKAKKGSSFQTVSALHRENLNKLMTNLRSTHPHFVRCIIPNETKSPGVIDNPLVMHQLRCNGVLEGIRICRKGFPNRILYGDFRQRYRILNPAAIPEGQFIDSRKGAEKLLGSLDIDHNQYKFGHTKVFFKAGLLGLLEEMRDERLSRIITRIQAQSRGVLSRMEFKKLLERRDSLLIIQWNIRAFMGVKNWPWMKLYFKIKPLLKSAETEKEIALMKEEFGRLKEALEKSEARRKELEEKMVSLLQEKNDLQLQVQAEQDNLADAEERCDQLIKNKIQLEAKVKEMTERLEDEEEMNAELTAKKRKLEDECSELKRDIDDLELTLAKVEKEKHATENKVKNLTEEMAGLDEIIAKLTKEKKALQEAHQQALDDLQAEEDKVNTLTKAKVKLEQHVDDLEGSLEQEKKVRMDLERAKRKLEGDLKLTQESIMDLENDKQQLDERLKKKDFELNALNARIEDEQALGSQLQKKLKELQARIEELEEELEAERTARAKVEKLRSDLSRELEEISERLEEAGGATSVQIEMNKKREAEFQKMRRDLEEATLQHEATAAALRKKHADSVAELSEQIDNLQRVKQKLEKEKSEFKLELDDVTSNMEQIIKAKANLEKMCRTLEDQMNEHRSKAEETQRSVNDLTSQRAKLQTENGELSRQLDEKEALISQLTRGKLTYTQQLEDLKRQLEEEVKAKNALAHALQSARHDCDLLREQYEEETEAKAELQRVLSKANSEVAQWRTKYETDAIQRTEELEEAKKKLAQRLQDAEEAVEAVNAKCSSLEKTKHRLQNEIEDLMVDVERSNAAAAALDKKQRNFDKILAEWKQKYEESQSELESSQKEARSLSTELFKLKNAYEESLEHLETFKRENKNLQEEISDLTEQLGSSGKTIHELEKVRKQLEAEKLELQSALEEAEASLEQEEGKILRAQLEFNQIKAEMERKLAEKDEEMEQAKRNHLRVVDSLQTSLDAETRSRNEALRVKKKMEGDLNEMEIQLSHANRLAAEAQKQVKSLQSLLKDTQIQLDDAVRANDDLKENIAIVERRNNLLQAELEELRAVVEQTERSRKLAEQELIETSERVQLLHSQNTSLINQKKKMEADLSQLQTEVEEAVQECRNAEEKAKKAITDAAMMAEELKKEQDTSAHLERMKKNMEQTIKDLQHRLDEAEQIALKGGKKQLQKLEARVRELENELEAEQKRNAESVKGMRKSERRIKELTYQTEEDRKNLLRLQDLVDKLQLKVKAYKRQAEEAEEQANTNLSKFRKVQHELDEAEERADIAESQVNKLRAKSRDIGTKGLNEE
bovine cardiac myofibrils (full-length cardiac myosin ATPase in the native sarcomere), sequence (P85100 whole entry partner): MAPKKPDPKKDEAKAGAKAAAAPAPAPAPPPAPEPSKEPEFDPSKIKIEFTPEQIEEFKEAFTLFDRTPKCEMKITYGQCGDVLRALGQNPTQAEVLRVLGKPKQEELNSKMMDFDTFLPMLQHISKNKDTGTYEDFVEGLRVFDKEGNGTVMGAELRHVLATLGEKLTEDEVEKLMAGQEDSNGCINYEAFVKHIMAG
bovine cardiac myofibrils (full-length cardiac myosin ATPase in the native sarcomere), sequence (Q3SZE5 whole entry partner): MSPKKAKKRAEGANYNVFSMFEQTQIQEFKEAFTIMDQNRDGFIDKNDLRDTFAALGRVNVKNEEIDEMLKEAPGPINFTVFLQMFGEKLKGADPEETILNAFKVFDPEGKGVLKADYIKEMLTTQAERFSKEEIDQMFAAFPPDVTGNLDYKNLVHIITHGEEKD

Row | Compound | CDMF75 IC15 | IC50
1 | CC(=O)N[C@@H]1CCc2cc(-c3noc(C(C)C)n3)ccc21 [Compound 395, (R)-N-(5-(5-isopropyl-1,2,4-oxadiazol-3-yl)-2,3-dihydro-1H-inden-1-yl)acetamide] | 3.1 µM | 13.5 µM
2 | Cc1n[nH]cc1C(=O)N[C@@H]1CCc2cc(-c3noc(C(C)C)n3)ccc21 [Compound 396, (R)-N-(5-(5-isopropyl-1,2,4-oxadiazol-3-yl)-2,3-dihydro-1H-inden-1-yl)-3-methyl-1H-pyrazole-4-carboxamide] | 0.4 µM | 1.6 µM
3 | COCc1nc(-c2ccc3c(c2)CC[C@H]3NC(=O)c2c[nH]nc2C)no1 [Compound 397, (R)-N-(5-(5-(methoxymethyl)-1,2,4-oxadiazol-3-yl)-2,3-dihydro-1H-inden-1-yl)-3-methyl-1H-pyrazole-4-carboxamide] | 0.9 µM | 3.2 µM
4 | CCc1nc(-c2ccc3c(c2)CC[C@H]3NC(=O)c2c[nH]nc2C)no1 [Compound 398, (R)-N-(5-(5-ethyl-1,2,4-oxadiazol-3-yl)-2,3-dihydro-1H-inden-1-yl)-3-methyl-1H-pyrazole-4-carboxamide] | 0.4 µM | 1.2 µM
5 | Cc1n[nH]cc1C(=O)N[C@@H]1CCc2cc(-c3noc(C4CCC4)n3)ccc21 [Compound 399, (R)-N-(5-(5-cyclobutyl-1,2,4-oxadiazol-3-yl)-2,3-dihydro-1H-inden-1-yl)-3-methyl-1H-pyrazole-4-carboxamide] | 0.3 µM | 1 µM
6 | Cc1nc(-c2ccc3c(c2)CC[C@H]3NC(=O)c2c[nH]nc2C)no1 [Compound 400, (R)-3-methyl-N-(5-(5-methyl-1,2,4-oxadiazol-3-yl)-2,3-dihydro-1H-inden-1-yl)-1H-pyrazole-4-carboxamide] | 0.8 µM | 2.8 µM
7 | [2H]C([2H])([2H])c1nc(-c2ccc3c(c2)CC[C@H]3NC(=O)c2c[nH]nc2C)no1 [Compound 401, (R)-3-methyl-N-(5-(5-(methyl-d3)-1,2,4-oxadiazol-3-yl)-2,3-dihydro-1H-inden-1-yl)-1H-pyrazole-4-carboxamide] | 0.9 µM | 3 µM
8 | CCc1nc(-c2ccc3c(c2)CC[C@H]3NC(C)=O)no1 [Compound 405, (R)-N-(5-(5-ethyl-1,2,4-oxadiazol-3-yl)-2,3-dihydro-1H-inden-1-yl)acetamide] | 0.6 µM | 2.3 µM
9 | CC(=O)N[C@@H]1CCc2cc(-c3noc(C4CCC4)n3)ccc21 [Compound 406, (R)-N-(5-(5-cyclobutyl-1,2,4-oxadiazol-3-yl)-2,3-dihydro-1H-inden-1-yl)acetamide] | 1.9 µM | 7.7 µM
10 | CC(=O)N[C@@H]1CCc2cc(-c3noc(C)n3)ccc21 [Compound 407, (R)-N-(5-(5-methyl-1,2,4-oxadiazol-3-yl)-2,3-dihydro-1H-inden-1-yl)acetamide] | 3.2 µM | 13.8 µM
11 | [2H]C([2H])([2H])c1nc(-c2ccc3c(c2)CC[C@H]3NC(C)=O)no1 [Compound 408, (R)-N-(5-(5-(methyl-d3)-1,2,4-oxadiazol-3-yl)-2,3-dihydro-1H-inden-1-yl)acetamide] | 2.8 µM | 12.8 µM
12 | Cc1ncc(C(=O)N[C@@H]2CCc3cc(-c4noc(C5CCC5)n4)ccc32)o1 [Compound 410, (R)-N-(5-(5-cyclobutyl-1,2,4-oxadiazol-3-yl)-2,3-dihydro-1H-inden-1-yl)-2-methyloxazole-5-carboxamide] | 0.9 µM | 3.5 µM
13 | Cc1cc(C(=O)N[C@@H]2CCc3cc(-c4noc(C5CCC5)n4)ccc32)ccn1 [Compound 412, (R)-N-(5-(5-cyclobutyl-1,2,4-oxadiazol-3-yl)-2,3-dihydro-1H-inden-1-yl)-2-methylisonicotinamide] | 0.5 µM | 1.8 µM
14 | CC(=O)N[C@@H]1CCc2cc(-c3noc(C4CC4)n3)ccc21 [Compound 419, (R)-N-(5-(5-cyclopropyl-1,2,4-oxadiazol-3-yl)-2,3-dihydro-1H-inden-1-yl)acetamide] | 1.2 µM | 4.7 µM
15 | CCc1cc(-c2ccc3c(c2)OC[C@H]3NC(=O)c2ccnn2C)no1 [Compound 421, (S)-N-(6-(5-ethylisoxazol-3-yl)-2,3-dihydrobenzofuran-3-yl)-1-methyl-1H-pyrazole-5-carboxamide] | 0.3 µM | 0.8 µM
16 | CCc1cc(-c2ccc3c(c2)OC[C@H]3NC(=O)c2cnn(C)c2)no1 [Compound 423, (S)—N-(6-(5-ethylisoxazol-3-yl)-2,3-dihydrobenzofuran-3-yl)-1-methyl-1H-pyrazole-4-carboxamide] | 0.3 µM | 1.2 µM
17 | CCc1cc(-c2ccc3c(c2)OC[C@H]3NC(=O)c2ccnc(C)c2)no1 [Compound 425, (S)-N-(6-(5-ethylisoxazol-3-yl)-2,3-dihydrobenzofuran-3-yl)-2-methylisonicotinamide] | 0.3 µM | 1.2 µM
18 | Cc1cc(-c2ccc3c(c2)OC[C@H]3NC(=O)c2cnn(C)c2)no1 [Compound 426, (S)-1-methyl-N-(6-(5-methylisoxazol-3-yl)-2,3-dihydrobenzofuran-3-yl)-1H-pyrazole-4-carboxamide] | 0.8 µM | 2.6 µM
19 | Cc1cc(-c2ccc3c(c2)OC[C@H]3NC(=O)c2ccnn2C)no1 [Compound 427, (S)-1-methyl-N-(6-(5-methylisoxazol-3-yl)-2,3-dihydrobenzofuran-3-yl)-1H-pyrazole-5-carboxamide] | 0.5 µM | 1.6 µM
20 | Cc1cc(-c2ccc3c(c2)OC[C@H]3NC(=O)c2cnc(C)o2)no1 [Compound 428, (S)-2-methyl-N-(6-(5-methylisoxazol-3-yl)-2,3-dihydrobenzofuran-3-yl)oxazole-5-carboxamide] | 1.0 µM | 3.4 µM
21 | Cc1cc(C(=O)N[C@@H]2COc3cc(-c4cc(C)on4)ccc32)ccn1 [Compound 430, (S)-2-methyl-N-(6-(5-methylisoxazol-3-yl)-2,3-dihydrobenzofuran-3-yl)isonicotinamide] | 1.0 µM | 3.2 µM

The next lines start with the values.

Row | CDMF75 IC15 | IC50 | Compound
22 | 1 µM | 3.8 µM | Cc1cc(-c2ccc3c(c2)CC[C@H]3NC(=O)c2cnn(C)c2)no1 [Compound 402, (R)-1-methyl-N-(5-(5-methylisoxazol-3-yl)-2,3-dihydro-1H-inden-1-yl)-1H-pyrazole-4-carboxamide]
23 | 0.4 µM | 1.2 µM | Cc1cc(-c2ccc3c(c2)CC[C@H]3NC(=O)c2ccnn2C)no1 [Compound 403, (R)-1-methyl-N-(5-(5-methylisoxazol-3-yl)-2,3-dihydro-1H-inden-1-yl)-1H-pyrazole-5-carboxamide]
24 | 0.4 µM | 1.2 µM | CCc1cc(-c2ccc3c(c2)CC[C@H]3NC(=O)c2ccnc(C)c2)no1 [Compound 404, (R)-N-(5-(5-ethylisoxazol-3-yl)-2,3-dihydro-1H-inden-1-yl)-2-methylisonicotinamide]
25 | 0.2 µM | 0.7 µM | Cc1ncoc1C(=O)N[C@@H]1CCc2cc(-c3noc(C4CCC4)n3)ccc21 [Compound 409, (R)-N-(5-(5-cyclobutyl-1,2,4-oxadiazol-3-yl)-2,3-dihydro-1H-inden-1-yl)-4-methyloxazole-5-carboxamide]
26 | 0.4 µM | 1.5 µM | CCc1cc(-c2ccc3c(c2)CC[C@H]3NC(=O)c2cnn(C)c2)no1 [Compound 413, (R)-N-(5-(5-ethylisoxazol-3-yl)-2,3-dihydro-1H-inden-1-yl)-1-methyl-1H-pyrazole-4-carboxamide]
27 | 0.2 µM | 0.6 µM | CCc1cc(-c2ccc3c(c2)CC[C@H]3NC(=O)c2ccnn2C)no1 [Compound 414, (R)—N-(5-(5-ethylisoxazol-3-yl)-2,3-dihydro-1H-inden-1-yl)-1-methyl-1H-pyrazole-5-carboxamide]
28 | 0.5 µM | 1.7 µM | CCc1cc(-c2ccc3c(c2)CC[C@H]3NC(=O)c2cnc(C)o2)no1 [Compound 415, (R)-N-(5-(5-ethylisoxazol-3-yl)-2,3-dihydro-1H-inden-1-yl)-2-methyloxazole-5-carboxamide]
29 | 1.2 µM | 4.2 µM | Cc1cc(-c2ccc3c(c2)CC[C@H]3NC(=O)c2cnc(C)o2)no1 [Compound 416, (R)-2-methyl-N-(5-(5-methylisoxazol-3-yl)-2,3-dihydro-1H-inden-1-yl)oxazole-5-carboxamide]
30 | 0.2 µM | 0.6 µM | CCc1cc(-c2ccc3c(c2)CC[C@H]3NC(=O)c2ocnc2C)no1 [Compound 417, (R)-N-(5-(5-ethylisoxazol-3-yl)-2,3-dihydro-1H-inden-1-yl)-4-methyloxazole-5-carboxamide]
31 | 0.3 µM | 1.2 µM | Cc1cc(-c2ccc3c(c2)CC[C@H]3NC(=O)c2ocnc2C)no1 [Compound 418, (R)-4-methyl-N-(5-(5-methylisoxazol-3-yl)-2,3-dihydro-1H-inden-1-yl)oxazole-5-carboxamide]
32 | 0.4 µM | 1.5 µM | CCc1cc(-c2ccc3c(c2)OC[C@H]3NC(=O)c2cnc(C)o2)no1 [Compound 422, (S)-N-(6-(5-ethylisoxazol-3-yl)-2,3-dihydrobenzofuran-3-yl)-2-methyloxazole-5-carboxamide]
33 | 0.2 µM | 0.6 µM | CCc1cc(-c2ccc3c(c2)OC[C@H]3NC(=O)c2ocnc2C)no1 [Compound 424, (S)-N-(6-(5-ethylisoxazol-3-yl)-2,3-dihydrobenzofuran-3-yl)-4-methyloxazole-5-carboxamide]
34 | 0.5 µM | 1.5 µM | Cc1cc(-c2ccc3c(c2)OC[C@H]3NC(=O)c2ocnc2C)no1 [Compound 429, (S)-4-methyl-N-(6-(5-methylisoxazol-3-yl)-2,3-dihydrobenzofuran-3-yl)oxazole-5-carboxamide]
